Patent US8604044B2, “Quinazoline based EGFR inhibitors containing a zinc binding moiety” (Curis, Inc., priority 2006, dated 2013)
Like-named read-outs stand apart in the source and are kept apart here.

Columns and labels:
[1] = test system: EGFR in MDA-MB-468 breast cancer cell line; assay: EGFR phosphorylation in MDA-MB-468 breast cancer cell line (FIG. 2); format: cell-based; settings: MDA-MB-468, FIG. 2
[2] = male, CD-1, mouse, in vivo, iv, 9 days
[3] = target: T1, human EGFR (Homo sapiens, UniProt P00533); assay: HTScan EGF Receptor Kinase Assay; format: biochemical; settings: FIG. 1
T1 construct: human EGFR (His672-Ala1210); purchased Cell Signaling Technologies; host or cells: baculovirus expression system
T1 sequence (P00533 672-1210): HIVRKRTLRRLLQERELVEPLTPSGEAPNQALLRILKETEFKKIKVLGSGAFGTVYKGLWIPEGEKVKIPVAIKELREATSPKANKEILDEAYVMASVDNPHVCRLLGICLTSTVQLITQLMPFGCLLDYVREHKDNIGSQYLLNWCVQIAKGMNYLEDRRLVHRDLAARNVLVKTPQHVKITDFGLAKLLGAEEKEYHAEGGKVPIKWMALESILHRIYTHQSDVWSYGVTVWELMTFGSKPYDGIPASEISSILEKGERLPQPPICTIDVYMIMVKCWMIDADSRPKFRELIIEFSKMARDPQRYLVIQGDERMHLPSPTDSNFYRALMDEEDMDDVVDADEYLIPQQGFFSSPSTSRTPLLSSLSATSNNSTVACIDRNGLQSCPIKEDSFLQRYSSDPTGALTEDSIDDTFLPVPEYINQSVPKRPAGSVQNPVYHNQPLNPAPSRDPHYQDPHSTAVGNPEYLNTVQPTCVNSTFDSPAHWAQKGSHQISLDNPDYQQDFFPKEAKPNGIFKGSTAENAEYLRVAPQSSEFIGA
Experimental: The ability of compounds to inhibit receptor kinase (EGFR) activity was assayed using HTScan™ EGF Receptor Kinase Assay Kits (Cell Signaling Technologies, Danvers, Mass.). […] The protein was purified by one-step affinity chromatography using glutathione-agarose.
Immediately transfer enzyme from −80° C. to ice. Allowed enzyme to thaw on ice. […] Returned immediately to ice. […] Incubated reaction plate at room temperature for 30 minutes. […] Added 100 μl/well primary antibody. Incubated at room temperature for 60 minutes. […] Added 100 μl/well diluted antibody. Incubated at room temperature for 30 minutes. […] Incubated at room temperature for 5 minutes.

[4] = Captisol formulation of compound 12: solubility, pH, dilution, stability
[5] = male, CD-1, mouse, in vivo, ip, 7 days
[6] = Pharmacokinetic study of compound 12 formulation in mice; format: in vivo; settings: hydrochloride salt in 30% CAPTISOL
Experimental: Drug Preparation and Administration. […] Compound was administered via an intravenous (iv) infusion.
Plasma samples were prepared by protein precipitation. An internal standard was added into plasma samples. […] The supernatant was then injected onto LC/MS/MS.
Tissues were homogenized in 0.8 ml water. An internal standard was added into the tissue homogenates.

[7] = test system: HDAC in MDA-MB-468 breast cancer cell line; assay: Ac-H4 / Ac-H3 accumulation in MDA-MB-468 breast cancer cell line (FIG. 2); format: cell-based; settings: MDA-MB-468, Ac-H4 and Ac-H3 accumulation
[8] = test system: HCT-116 (colon) and SKBr3 (breast) cancer cells; assay: Induction of apoptosis, Caspase 3&7 activity (FIG. 4); format: cell-based; settings: 24 hours
[9] = both, Sprague Dawley, rat, in vivo, iv, 8 days
[10] = test system: HPAC pancreatic cancer cells; assay: HPAC pancreatic cancer xenograft; format: in vivo, mice; settings: 120 mg/kg in 30% CAPTISOL (iv/ip) daily vs 50 mg/kg erlotinib (po) or vehicle, FIG. 12A
Experimental: 1-10×10^6 human cancer cells were implanted subcutaneously to the athymic (nu/nu) mice. When the tumors reached about 100 mm^3 in volume, the mice were treated with the compound by tail vein infusion. Routinely 5 groups (8-12 mice per group) are needed for a typical efficacy study, including one negative control, one positive control, and three testing groups for 3 dose levels of the same compound. Usually a 7-7-5 (on-off-on) regimen was used for one typical study. The tumor size was measured with an electronic caliper and body weight measured with a scale twice weekly. The tumors were removed from euthanized mice at the end of the study. One half of each tumor was frozen in dry ice and stored at −80° C. for PK or Western blot analysis. The other half was fixed with formalin. The fixed tissues were processed, embedded in paraffin and sectioned for immunohistochemistry staining.

[11] = Pharmacokinetic study of compound 12 formulation in mice; format: in vivo; settings: IP Dose 20 mg/kg, hydrochloride salt in 30% CAPTISOL
[12] = test system: Caki-1; assay: Cell proliferation assay (Table D); format: cell-based; settings: Homo sapiens, Renal carcinoma, read-out: IC50 grading Caki-1
[13] = Pharmacokinetic study of compound 12 formulation in rats; format: in vivo; settings: 20 and 60 mg/kg iv, hydrochloride salt in 30% CAPTISOL, over thirty hours, FIG. 14
[14] = test system: various cancer cell lines; assay: Cell proliferation assay, various cancer cell lines (general statements); format: cell-based; settings: Table D
Experimental: Cancer cell lines were plated at 5,000 to 10,000 per well in 96-well flatted bottomed plates with various concentration of compounds. The cells were incubated with compounds for 72 hours in the presence of 0.5% of fetal bovine serum. Growth inhibition was accessed by adenosine triphosphate (ATP) content assay using Perkin Elmer ATPlite kit. ATPlite is an ATP monitoring system based on firefly luciferase. Briefly, 25 μl of mammalian cell lysis solution was added to 50 μl of phenol red-free culture medium per well to lyse the cells and stabilize the ATP. 25 μl of substrate solution was then added to the well and subsequently the luminescence was measured.

C#Cc1cccc(Nc2ncnc3cc(OC)c(OCCCCCCC(=O)NO)cc23)c1 [Compound 12, 7-(4-(3-ethynylphenylamino)-7-methoxyquinazolin-6-yloxy)-N-hydroxyheptanamide]
inhibition of EGFR phosphorylation compared with Erlotinib [1]: improvement | dose not resulting in a significant change in body weight [2]: up to 200 mg/kg | activity in EFGR enzyme assay compared with erlotinib [3]: more active | stability of solution ([4]; 25 mg/ml in 30% Captisol with tartaric acid): stable at room temperature | chemically stable and in solution without precipitation after dilution ([4]; formulations from A (i), diluted with D5W 10-, 20-, and 50-fold): > 48 h | remained in solution without precipitation after dilution ([4]; formulations from A (ii) citric acid, A (iii) hydrochloric acid, A (iiii) sodium salt, diluted with D5W 10-fold): > 12 h | chemical stability of lyophilisate ([4]; lyophilisate from A (i) (tartaric acid, 25 mg/ml), −20° C., room temperature, and 40° C.): at least 2 weeks | storage of lyophilisate without decomposition ([4]; lyophilisate from A (i), 4° C.): greater than 2 weeks | stability of lyophilisate ([4]; lyophilisate from A (iii) (hydrochloric acid), −20° C.): at least two weeks | dose not resulting in a significant change in body weight [5]: up to 100 mg/kg | dose proportionality of concentration ([6]; 20 and 60 mg/kg, iv and ip): dose proportional when administered intravenously but not intraperitoneally | T ½ ([6]; IP Dose 20 mg/kg, Lung): 2.2 h | AUC ([6]; IV Dose 20 mg/kg, Colon): 5529 ng·h/mL | Cmax ([6]; IV Dose 20 mg/kg, Colon): 8.5 µM | T ½ ([6]; IV Dose 20 mg/kg, Colon): 1.7 h | AUC ([6]; IV Dose 20 mg/kg, Lung): 1571 ng·h/mL | Cmax ([6]; IV Dose 20 mg/kg, Lung): 15.2 µM | T ½ ([6]; IV Dose 20 mg/kg, Lung): 3.9 h | AUC ([6]; IV Dose 20 mg/kg, Plasma): 715 ng·h/mL | Cmax ([6]; IV Dose 20 mg/kg, Plasma): 27.7 µM | T ½ ([6]; IV Dose 20 mg/kg, Plasma): 0.2 h | half-life in tissue compared with plasma [6]: greater than that in plasma | histone H3/H4 acetylation accumulation compared with SAHA [7]: improvement | cell apoptosis measured by increased Caspase 3&7 activity, times more [8]: 4-11 times | dose not resulting in a significant change in body weight [9]: up to 200 mg/kg | attenuation of tumor growth [10]: greater attenuation of tumor growth than either erlotinib (po) or vehicle | AUC ([11]; Lung): 4433 ng·h/mL | Cmax ([11]; Lung): 7.8 µM | AUC ([11]; Plasma): 3751 ng·h/mL | Cmax ([11]; Plasma): 8.5 µM | T ½ ([11]; Plasma): 15.6 min | IC50 [12]: ≤ 50 nM | plasma concentration versus dose [13]: proportional to the dose | activity in various cancer cell lines compared with Erlotinib and SAHA [14]: more active than Erlotinib and SAHA
